# Key:
# Podosphaera leucotricha = assay: in vivo curative test on Podosphaera (apples); conditions: sprayed 2 days after inoculation, evaluated 10 days after inoculation
# Description: Example B: in vivo curative test on Podosphaera (apples); comparison of compound I-01 according to the invention vs. related compounds known from WO-A 2017/029179 and WO-A 2013/007767, respectively [table] To produce a suitable preparation of active compound, 1 part by weight of active compound is mixed with the stated amounts of solvent and emulsifier, and the concentrate is diluted with water to the desired concentration. To test for curative activity, young plants are inoculated with an aqueous spore suspension of the causal agent of apple mildew (Podosphaera leucotricha). The plants are placed in a greenhouse at approximately 23°C under relative atmospheric humidity of approximately 70%. 2 days after the inoculation, the plants are sprayed with the preparation of active compound at the stated rate of application. The test is evaluated 10 days after the inoculation. 0% means an efficacy which corresponds to that of the untreated control, while an efficacy of 100% means that no disease is observed. Table: in vivo curative test on Podosphaera test (apples)
# [1] = LogP measurement by HPLC on reversed phase columns (EEC directive 79/831 Annex V.A8); assay type: physicochemical; conditions: reversed phase HPLC column; method [a]: LC-UV, acidic range, 0.1% formic acid in water and acetonitrile as eluent
# Description: LogP values: Measurement of LogP values was performed according to EEC directive 79/831 Annex V.A8 by HPLC (High Performance Liquid Chromatography) on reversed phase columns with the following methods: • [a] […] If more than one LogP value is available within the same method, all the values are given and separated by "+". Calibration was done with straight-chain alkan2-ones (with 3 to 16 carbon atoms) with known LogP values (measurement of LogP values using retention times with linear interpolation between successive alkanones). Lambda-max-values were determined using UV-spectra from 200 nm to 400 nm and the peak values of the chromatographic signals.
# Phakopsora pachyrhizi = assay: in vivo curative test on Phakopsora (soybeans); conditions: sprayed 3 days after inoculation, evaluated 7 days after inoculation
# Description: Example A: in vivo curative test on Phakopsora (soybeans); comparison of compound I-01 according to the invention vs. related compounds known from WO-A 2017/029179 and WO-A 2013/007767, respectively [table] To produce a suitable preparation of active compound, 1 part by weight of active compound is mixed with the stated amounts of solvent and emulsifier, and the concentrate is diluted with water to the desired concentration. To test for curative activity, young plants are inoculated with an aqueous spore suspension of the causal agent of soybean rust (Phakopsora pachyrhizi) and stay for 24h without light in an incubation cabinet at approximately 24°C and a relative atmospheric humidity of 95 %. The plants remain in the incubation cabinet at approximately 24°C and a relative atmospheric humidity of approximately 80 % and a day / night interval of 12h. 3 days after the inoculation, the plants are sprayed with the preparation of active compound at the stated rate of application. The test is evaluated 7 days after the inoculation. 0% means an efficacy which corresponds to that of the untreated control, while an efficacy of 100% means that no disease is observed. Table: in vivo curative test on Phakopsora test (soybeans)
Structure (SMILES),Efficacy in% (Podosphaera leucotricha; rate of application 1 ppm),Efficacy in% (Podosphaera leucotricha; rate of application 10 ppm),chromatographic logP [1],Efficacy in% (Phakopsora pachyrhizi; rate of application 5 ppm),Efficacy in% (Phakopsora pachyrhizi; rate of application 10 ppm)
CC(O)(Cn1cncn1)c1ccc(Oc2ccc(Cl)cc2)cc1C(F)(F)F (stereo not shown) [drawing 13],71%,95%,,,
"Cc1ccc(Oc2ccc(C(C)(O)Cn3cncn3)c(C(F)(F)F)n2)cc1 (stereo not shown) [I-01, 2-[6-(4-methylphenoxy)-2-(trifluoromethyl)pyridin-3-yl]-1-(1,2,4-triazol-1-yl)propan-2-ol]",86%,99%,2.69,86%,83%
CC(O)(Cn1cncn1)c1ccc(Oc2ccc(S(F)(F)(F)(F)F)cc2)nc1C(F)(F)F (stereo not shown) [drawing 12],62%,92%,,,
CC(O)(Cn1cncn1)c1ccc(Oc2ccc(Cl)cc2)cc1C(F)(F)F (stereo not shown) [drawing 10],,,,8%,15%
CC(O)(Cn1cncn1)c1ccc(Oc2ccc(S(F)(F)(F)(F)F)cc2)nc1C(F)(F)F (stereo not shown) [drawing 9],,,,0%,0%

# Source: patent EP3421460A1, “2-[(4-ALKYLPHENOXY)-PYRIDINYL]-1-(1,2,4-TRIAZOL-1-YL)ALKAN-2-OL FUNGICIDES” (Bayer Aktiengesellschaft, priority 2018, dated 2019)
